Measurements from patent publication US8974815B2, “Fibrous membrane for biomedical application based on poly(ester-amide)s” (Cornell University, priority 2005, dated 2015).

Columns and labels:
[1] = Gallium nitrate release from 8P4 fabric (conductivity); type: physicochemical; conditions: from 8P4 fabric at 1.2, 1.0 and 0.2 g gallium nitrate per g 8P4; water extraction
Protocol: In order to determine release profiles of gallium nitrate from the fabric, a calibration curve was prepared as follows: Solutions of known concentrations of gallium nitrate in chloroform (not completely dissolved) were extracted with 10-mL deionized water. The electrical resistance of the aqueous solutions from extraction was measured. A calibration curve was constructed based on conductivity (inverse of measured resistance) and known concentration of gallium nitrate.
Drug release was established at 1, 2, 3, 4, 5, 8, 12, 18 and 28 days by extraction with water and measuring conductivity and generating gallium nitrate release profiles for 1.2 grams of gallium nitrate per gram (8P4), 1.0 gram of gallium nitrate per gram (8P4) and 0.2 am of gallium nitrate per gram (8P4). In each case there was a burst of drug release within the first 5 days.

[2] = In vitro release of 4-amino-TEMPO in PBS medium (ESR); type: physicochemical
Protocol: (§1) The in vitro release of 4-amino-TEMPO nitroxyl radicals from electrospun PEA fibers was investigated by immersing ˜300 mg 8-Phe-4 electrospun nano fibrous mat into a glass vial filled with 5 mL of 0.1M phosphate buffer solution of pH=7.42. The 8-Phe-4 nano fibrous mat was pre-loaded with 4-amino-TEMPO at a 10.0 mg 4-amino-TEMPO per g 8-Phe-4 and electrospun from a 39% wt/vol 8-Phe-4 solution in the mixture solvent of chloroform and DMF at volume ratio of 2 to 1. The glass vial was then placed in a water bath shaker maintained at 37° C. and 100 cycles/min. 10 μl of supernant of the vial was taken at a determined time and the amount of 4-amino-TEMPO nitroxyl radicals was measured by electron spin resonance (ESR) as a function of incubation time.
(§2) Three samples were taken for each measurement and the average results were reported. The ESR spectra at X-band were obtained from a Bruker 200D SRC spectrometer operating at 9.6 GHz, using 100 KHz modulation. The ESR signal intensity which is proportional to the mass of 4-amino-TEMPO nitroxyl free radical was obtained by a double integration of the recorded first derivative signals. A linear correlation (γ^2=0.9996) between the ESR signal intensity and the mass of nitroxyl radical ranging from 1.67 μg to 0.05 μg was obtained. The actual amount of 4-amino-TEMPO nitroxyl radicals loaded into the electrospun fibers was also determined by a complete dissolution of 8-Phe-4/4-amino-TEMPO electrospun fibrous membranes in DMF and the actual pre-loaded 4-amino-TEMPO amount within 8-Phe-4 fibers was calculated from the established calibration curve. The nitroxyl radicals released was measured in triplicates and expressed in the percentage of the initial pre-loaded amounts in the 8-Phe-4 fibers.

[3] = biological target: α-chymotrypsin (Bos taurus, UniProt P00766); assay: In vitro release of 4-amino-TEMPO in α-chymotrypsin solution (ESR); type: in vitro ADME
Protocol: as §1, §2
4-amino-TEMPO was physically pre-loaded into the 640 nm 8-Phe-4 electrospun fibers at a loading level of 10.0 mg TEMPO per gram of 8-Phe-4. Since 4-amino-TEMPO is a free radical, the actual amounts of 4-amino-TEMPO loaded into the 8-Phe-4 electrospun nanofibers and its subsequently release from the fibers in either PBS buffer or a α-chymotrypsin solution (0.1 mg/mL α-chymotrypsin) were quantified by ESR.

O=[N+]([O-])[O-].O=[N+]([O-])[O-].O=[N+]([O-])[O-].[Ga+3] [gallium nitrate, Gallium (III) nitrate hydrate]
period of burst of drug release [1]: ≤ 5 days

CC1(C)CC(N)CC(C)(C)N1[O] [4-amino-TEMPO, 4-amino-2,2,6,6-tetramethylpiperadine-1-oxy radical]
slope of the initial linear part of the release profile ([2]; PBS medium alone, 37° C.): 2.0 %/day
4-amino-TEMPO still entrapped inside the 8-Phe-4 matrix ([2]; after one month in PBS): more than 60%
initial burst release, of total loaded nitroxyl radical ([2]; first day, from 640 nm 8-Phe-4 nanofibers, pH 7.42 PBS, 37° C.): about 14%
residual nitroxyl radical in dissolved incubated membrane, of initial loading level ([2]; one-month incubated membrane dissolved in DMF, ESR): about 58%
release slope in α-chymotrypsin relative to PBS alone [3]: more than 35 times
slope of the initial linear part of the release profile ([3]; 0.1 mg/mL α-chymotrypsin solution, 37° C.): 72 %/day
incorporated TEMPO released ([3]; within the 1st hr, α-chymotrypsin solution): more than 23%
time to complete release ([3]; α-chymotrypsin solution): ≤ 120 h
